Source: patent publication US20090005374A1, “IMIDAZOPYRIDINYL THIAZOLYL HISTONE DEACETYLASE INHIBITORS” (priority 2007, published 2009)

What was measured:
HDAC 1 [1] = target: T1, HDAC 1 (Homo sapiens, UniProt Q13547); assay: HDAC 1 fluorogenic peptide substrate assay with 3-hour enzyme/compound preincubation; type: biochemical; conditions: 3-hour preincubation of enzyme and compound; read-out: HDAC 1 inhibitory activity (IC50) 3-hour preincubation
Method: (§1) The second assay is similar to the first assay described above, except that preincubation is carried out for about 3 hours after the enzyme is introduced. The test compound was suspended in, and titrated in DMSO. It was then spotted into a 384-well test plate. The enzyme, HDAC 1 or 6, was diluted in the same assay buffer as used in the previous assay and added to the pre-spotted compound. The enzyme/compound mix was incubated at room temperature for about 3 hours. The peptide substrate containing a fluorophore/quencher pair was diluted in the assay buffer and added to the compound/enzyme mix initiating the reaction. The reaction incubated at room temperature for 45 minutes. A concentrated developer solution was diluted in the assay buffer, and added to the reaction. The reaction was incubated at room temperature for about 15 minutes and relative fluorescence was read on an instrument reader.

HDAC 6 [2] = target: T2, HDAC 6 (Homo sapiens, UniProt Q9UBN7); assay: HDAC 6 fluorogenic peptide substrate assay with 3-hour enzyme/compound preincubation; type: biochemical; conditions: 3-hour preincubation of enzyme and compound; read-out: HDAC 6 inhibitory activity (IC50) 3-hour preincubation
T2 sequence (Q9UBN7 1-1215): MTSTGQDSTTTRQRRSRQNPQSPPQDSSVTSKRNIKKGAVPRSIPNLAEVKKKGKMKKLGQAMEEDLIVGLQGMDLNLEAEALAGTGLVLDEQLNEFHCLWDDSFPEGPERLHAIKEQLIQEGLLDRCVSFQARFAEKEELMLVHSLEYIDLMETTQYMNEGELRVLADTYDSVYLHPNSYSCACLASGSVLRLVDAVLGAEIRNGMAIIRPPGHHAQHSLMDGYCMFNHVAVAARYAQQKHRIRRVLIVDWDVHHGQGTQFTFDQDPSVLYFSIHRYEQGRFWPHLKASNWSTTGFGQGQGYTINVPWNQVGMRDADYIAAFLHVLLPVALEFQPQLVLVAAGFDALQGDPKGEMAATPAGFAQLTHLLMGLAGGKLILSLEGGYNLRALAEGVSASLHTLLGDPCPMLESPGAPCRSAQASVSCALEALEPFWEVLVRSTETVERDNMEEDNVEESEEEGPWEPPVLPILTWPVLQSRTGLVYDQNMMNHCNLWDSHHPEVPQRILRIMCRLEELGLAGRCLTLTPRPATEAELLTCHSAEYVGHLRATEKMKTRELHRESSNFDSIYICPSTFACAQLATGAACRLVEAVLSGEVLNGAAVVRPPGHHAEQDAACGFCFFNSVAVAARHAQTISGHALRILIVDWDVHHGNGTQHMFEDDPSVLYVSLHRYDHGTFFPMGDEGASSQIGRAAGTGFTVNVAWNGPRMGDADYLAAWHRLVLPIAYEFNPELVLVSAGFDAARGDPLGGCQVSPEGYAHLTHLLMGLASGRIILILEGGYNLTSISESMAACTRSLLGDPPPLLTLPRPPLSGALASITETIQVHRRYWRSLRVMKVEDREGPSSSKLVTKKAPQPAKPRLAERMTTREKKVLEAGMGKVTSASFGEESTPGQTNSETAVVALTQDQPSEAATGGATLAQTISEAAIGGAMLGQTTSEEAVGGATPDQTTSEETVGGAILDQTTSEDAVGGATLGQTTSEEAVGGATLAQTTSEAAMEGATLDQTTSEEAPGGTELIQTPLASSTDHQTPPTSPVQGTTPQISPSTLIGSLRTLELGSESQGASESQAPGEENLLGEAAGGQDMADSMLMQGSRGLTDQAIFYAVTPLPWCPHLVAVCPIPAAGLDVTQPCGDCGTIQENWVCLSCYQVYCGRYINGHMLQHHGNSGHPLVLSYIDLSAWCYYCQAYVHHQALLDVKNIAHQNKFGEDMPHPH
Method: as §1

HDAC 1 [3] = target: T1, HDAC 1; assay: HDAC 1 fluorogenic peptide substrate assay without preincubation; type: biochemical; conditions: no preincubation; read-out: HDAC 1 inhibitory activity (IC50) No preincubation
Method: (§2) HDAC inhibitory activity of the compound of Example 1 was measured by two types of assays in which HDAC 1 and 6 were used as a target molecule. The first assay was carried out without preincubation after addition of the enzyme. The test compound was suspended in and titrated in DMSO. It was then spotted into a 384-well test plate. The enzyme, HDAC 1 or 6, was diluted in assay buffer containing 25 mM Tris-HCl (pH 8.0), 137 mM NaCl, 2.7 mM KCl, and 0.01% Tween-20 and added to the pre-spotted compound. The peptide substrate containing a fluorophore/quencher pair was diluted in the same assay buffer and added to the compound/enzyme mix initiating the reaction. The reaction incubated at room temperature for about 45 minutes. A concentrated developer solution was diluted in the assay buffer, and added to the reaction. The reaction was incubated at room temperature for about 15 minutes and relative fluorescence was read on an instrument reader.

HDAC 6 [4] = target: T2, HDAC 6; assay: HDAC 6 fluorogenic peptide substrate assay without preincubation; type: biochemical; conditions: no preincubation; read-out: HDAC 6 inhibitory activity (IC50) No preincubation
Method: as §2

T1 sequence (Q13547 whole entry, species assumed): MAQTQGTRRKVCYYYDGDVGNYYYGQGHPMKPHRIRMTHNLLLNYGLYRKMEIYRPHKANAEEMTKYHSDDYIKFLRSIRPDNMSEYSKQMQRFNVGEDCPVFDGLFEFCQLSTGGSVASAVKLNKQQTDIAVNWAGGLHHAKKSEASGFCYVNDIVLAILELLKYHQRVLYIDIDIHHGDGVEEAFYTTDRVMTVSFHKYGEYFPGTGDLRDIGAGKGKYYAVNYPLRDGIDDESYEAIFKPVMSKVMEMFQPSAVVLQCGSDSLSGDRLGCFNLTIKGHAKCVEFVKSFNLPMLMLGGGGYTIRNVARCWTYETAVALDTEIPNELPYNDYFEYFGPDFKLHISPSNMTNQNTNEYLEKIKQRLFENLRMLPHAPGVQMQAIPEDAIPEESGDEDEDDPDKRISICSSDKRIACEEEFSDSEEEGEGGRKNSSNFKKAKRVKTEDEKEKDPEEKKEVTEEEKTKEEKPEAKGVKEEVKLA

Row | IC50 (HDAC 1 [1]) [nM] | IC50 (HDAC 6 [2]) [nM] | IC50 (HDAC 1 [3]) [nM] | IC50 (HDAC 6 [4]) [nM] | melting point [°C] | Structure (SMILES)
1 | 92.7 | 490 | 1080 | 318 | 170.4 | Cc1nc2ccccn2c1-c1csc(Nc2cccc(C(=O)NO)c2)n1 [Example 1, N-Hydroxy-3-[4-(2-methyl-imidazo[1,2-a]pyridin-3-yl)-thiazol-2-ylamino] -benzamide]
2 | 42000 | > 50000 | 3260 | > 50000 | 194.9 to 197 | Cc1nc2ccccn2c1-c1csc(Nc2cccc(C(=O)Nc3ccccc3N)c2)n1 [Example 2, N-(2-Amino-phenyl)-3-[4-(2-methyl-imidazo[1,2-a]pyridin-3-yl)-thiazol-2-ylamino]-benzamide]
3 | 53.5 | 55.8 | 80 | 46.7 | 188.3 | Cc1nc2ccccn2c1-c1csc(Nc2ccc(C(=O)NO)cc2)n1 [Example 3, N-Hydroxy-4-[4-(2-methyl-imidazo[1,2-a]pyridin-3-yl)-thiazol-2-ylamino]-benzamide]
4 | 80 | > 50000 | 313 | > 50000 | 161.1 to 165.4 | Cc1nc2ccccn2c1-c1csc(Nc2ccc(C(=O)Nc3ccccc3N)cc2)n1 [Example 4, N-(2-Amino-phenyl)-4-[4-(2-methyl-imidazo[1,2-a]pyridin-3-yl)-thiazol-2-ylamino]-benzamide]
5 | 53.9 |  |  |  | 200.5 | Cc1nc2ccccn2c1-c1nc(Nc2ccc(C(=O)NO)cc2)sc1C [Example 5, N-Hydroxy-4-[5-methyl-4-(2-methyl-imidazo[1,2-a]pyridin-3-yl)-thiazol-2-ylamino]-benzamide]
6 | 21.5 |  |  |  | 250.1 | Cc1nc2ccccn2c1-c1nc(Nc2ccc(C(=O)Nc3ccccc3N)cc2)sc1C [Example 6, N-(2-Amino-phenyl)-4-[5-methyl-4-(2-methyl-imidazo[1,2-a]pyridin-3-yl)-thiazol-2-ylamino]-benzamide]
7 | 22 |  |  |  |  | Cc1nc2ccc(Cl)cn2c1-c1csc(Nc2ccc(C(=O)NO)cc2)n1 [Example 7, 4-[4-(6-Chloro-2-methyl-imidazo[1,2-a]pyridin-3-yl)-thiazol-2-ylamino]-N-hydroxy-benzamide]
8 | 51 |  |  |  |  | Cc1nc2ccc(Cl)cn2c1-c1csc(Nc2ccc(C(=O)Nc3ccccc3N)cc2)n1 [Example 8, N-(2-Amino-phenyl)-4-[4-(6-chloro-2-methyl-imidazo[1,2-a]pyridin-3-yl)-thiazol-2-ylamino]-benzamide]
9 | 154 |  |  |  | 183.2 | Cc1nc2ccc(C(F)(F)F)cn2c1-c1csc(Nc2ccc(C(=O)NO)cc2)n1 [Example 9, N-Hydroxy-4-[4-(2-methyl-6-trifluoromethyl-imidazo[1,2-a]pyridin-3-yl)-thiazol-2-ylamino]-benzamide]
10 | 59 |  |  |  |  | Cc1nc2ccc(C(F)(F)F)cn2c1-c1csc(Nc2ccc(C(=O)Nc3ccccc3N)cc2)n1 [Example 10, N-(2-Amino-phenyl)-4-[4-(2-methyl-6-trifluoromethyl-imidazo[1,2-a]pyridin-3-yl)-thiazol-2-ylamino]-benzamide]
11 | 56.9 |  |  |  | 159.7 | COc1ccn2c(-c3csc(Nc4ccc(C(=O)Nc5ccccc5N)cc4)n3)c(C)nc2c1 [Example 11, N-(2-Amino-phenyl)-4-[4-(7-methoxy-2-methyl-imidazo[1,2-a]pyridin-3-yl)-thiazol-2-ylamino]-benzamide]
12 | 62.6 |  |  |  |  | COc1ccn2c(-c3csc(Nc4ccc(C(=O)NO)cc4)n3)c(C)nc2c1 [Example 12, N-Hydroxy-4-[4-(7-methoxy-2-methyl-imidazo[1,2-a]pyridin-3-yl)-thiazol-2-ylamino]-benzamide]
13 | 29 | 17 | 85.5 | 18.5 | 209.9 | O=C(NO)c1ccc(Nc2nc(-c3cnc4ccccn34)cs2)cc1 [Example 13, N-Hydroxy-4-(4-imidazo[1,2-a]pyridin-3-yl-thiazol-2-ylamino)-benzamide]
14 | 114 |  | 5400 | 183 | 184.1 | O=C(NO)c1cccc(Nc2nc(-c3cnc4ccccn34)cs2)c1 [Example 14, N-Hydroxy-3-(4-imidazo[1,2-a]pyridin-3-yl-thiazol-2-ylamino)-benzamide]
15 | 37 | > 10000 |  |  | 229.4 | Nc1ccccc1NC(=O)c1ccc(Nc2nc(-c3cnc4ccccn34)cs2)cc1 [Example 15, N-(2-Amino-phenyl)-4-(4-imidazo[1,2-a]pyridin-3-yl-thiazol-2-ylamino)-benzamide]
16 | 9130 |  |  |  |  | Nc1ncccc1NC(=O)c1ccc(Nc2nc(-c3cnc4ccccn34)cs2)cc1 [Example 16, N-(2-Amino-pyridin-3-yl)-4-(4-imidazo[1,2-a]pyridin-3-yl-thiazol-2-ylamino)-benzamide]
17 | 24.6 |  |  |  | 186.5 | Cc1sc(Nc2ccc(C(=O)Nc3ccccc3N)cc2)nc1-c1cnc2ccccn12 [Example 17, N-(2-Amino-phenyl)-4-(4-imidazo[1,2-a]pyridin-3-yl-5-methyl-thiazol-2-ylamino)-benzamide]
18 | 46.7 |  |  |  | 262.6 | Cc1sc(Nc2ccc(C(=O)NO)cc2)nc1-c1cnc2ccccn12 [Example 18, N-Hydroxy-4-(4-imidazo[1,2-a]pyridin-3-yl-5-methyl-thiazol-2-ylamino)-benzamide]
19 | 6030 |  |  |  |  | Cc1sc(Nc2ccc(C(=O)Nc3nn(-c4ccccc4)cc3N)cc2)nc1-c1cnc2ccccn12 [Example 19, N-(4-Amino-1-phenyl-1H-pyrazol-3-yl)-4-(4-imidazo [1,2-a]pyridin-3-yl-5-methyl-thiazol-2-ylamino)-benzamide]
20 | 48 |  |  |  |  | Nc1ccccc1NC(=O)c1ccc(Nc2ncc(-c3cnc4ccccn34)s2)cc1 [Example 20, N-(2-Amino-phenyl)-4-(5-imidazo[1,2-a]pyridin-3-yl-thiazol-2-ylamino)-benzamide]
21 | 147 |  |  |  |  | Cc1nc2ccccn2c1-c1csc(N(CC(F)(F)F)c2ccc(C(=O)Nc3ccccc3N)cc2)n1 [Example 21a, N-(2-Amino-phenyl)-4-[[4-(2-methyl-imidazo[1,2-a]pyridin-3-yl)-thiazol-2-yl]-(2,2,2-trifluoro-ethyl)-amino]-benzamide]
22 | 5580 |  |  |  |  | Cc1nc2ccccn2c1-c1csc(N(CC(F)(F)F)c2ccc(C(=O)NO)cc2)n1 [Example 21b, N-Hydroxy-4-[[4-(2-methyl-imidazo[1,2-a]pyridin-3-yl)-thiazol-2-yl]-(2,2,2-trifluoro-ethyl)-amino]-benzamide]
